Test results reported in ChEMBL document CHEMBL5131517 (ACS Med Chem Lett, 2022).

Columns and labels:
Type in all cases: functional, cell-based
[1] = biological target: T1, 5-hydroxytryptamine receptor 2A (Homo sapiens, UniProt P28223); assay: Agonist activity at human 5HT2A receptor stably expressed in Flp-In-T-REx-293 cells assessed as maximal Gq-mediated calcium flux by Fluo-4 direct dye based FLIPR Tetra assay relative to control
[2] = biological target: T1, 5-hydroxytryptamine receptor 2A; assay: Agonist activity at human 5HT2A receptor stably expressed in Flp-In-T-REx-293 cells assessed as increase in Gq-mediated calcium flux by Fluo-4 direct dye based FLIPR Tetra assay
[3] = biological target: T2, 5-hydroxytryptamine receptor 2C (Homo sapiens, UniProt P28335); assay: Agonist activity at human 5HT2C receptor stably expressed in Flp-In-T-REx-293 cells assessed as increase in Gq-mediated calcium flux by Fluo-4 direct dye based FLIPR Tetra assay
T2 sequence (P28335 whole entry): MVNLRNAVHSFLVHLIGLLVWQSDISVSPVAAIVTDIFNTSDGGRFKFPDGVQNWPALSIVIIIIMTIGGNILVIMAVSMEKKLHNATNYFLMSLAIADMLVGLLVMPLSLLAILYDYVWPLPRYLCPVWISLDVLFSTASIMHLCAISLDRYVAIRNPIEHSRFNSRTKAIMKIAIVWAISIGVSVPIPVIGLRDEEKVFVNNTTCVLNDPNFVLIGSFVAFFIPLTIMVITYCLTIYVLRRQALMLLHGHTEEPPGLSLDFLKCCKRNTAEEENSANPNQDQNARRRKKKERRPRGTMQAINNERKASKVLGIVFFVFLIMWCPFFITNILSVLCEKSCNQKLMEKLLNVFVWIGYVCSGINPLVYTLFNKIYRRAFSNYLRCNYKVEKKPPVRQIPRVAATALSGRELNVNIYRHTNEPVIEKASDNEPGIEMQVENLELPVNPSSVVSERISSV

[4] = biological target: T3, 5-hydroxytryptamine receptor 2B (Homo sapiens, UniProt P41595); assay: Agonist activity at human 5HT2B receptor stably expressed in Flp-In-T-REx-293 cells assessed as maximal Gq-mediated calcium flux by Fluo-4 direct dye based FLIPR Tetra assay relative to control
[5] = biological target: T3, 5-hydroxytryptamine receptor 2B; assay: Agonist activity at human 5HT2B receptor stably expressed in Flp-In-T-REx-293 cells assessed as increase in Gq-mediated calcium flux by Fluo-4 direct dye based FLIPR Tetra assay; settings: read-out: EC50
[6] = biological target: T4, 5-hydroxytryptamine receptor 2C (Homo sapiens) (UniProt P28335); assay: Agonist activity at human 5HT2C receptor stably expressed in Flp-In-T-REx-293 cells assessed as maximal Gq-mediated calcium flux by Fluo-4 direct dye based FLIPR Tetra assay relative to control
T4 sequence (whole entry): T2 sequence (P28335 whole entry)

T1 sequence (P28223 whole entry): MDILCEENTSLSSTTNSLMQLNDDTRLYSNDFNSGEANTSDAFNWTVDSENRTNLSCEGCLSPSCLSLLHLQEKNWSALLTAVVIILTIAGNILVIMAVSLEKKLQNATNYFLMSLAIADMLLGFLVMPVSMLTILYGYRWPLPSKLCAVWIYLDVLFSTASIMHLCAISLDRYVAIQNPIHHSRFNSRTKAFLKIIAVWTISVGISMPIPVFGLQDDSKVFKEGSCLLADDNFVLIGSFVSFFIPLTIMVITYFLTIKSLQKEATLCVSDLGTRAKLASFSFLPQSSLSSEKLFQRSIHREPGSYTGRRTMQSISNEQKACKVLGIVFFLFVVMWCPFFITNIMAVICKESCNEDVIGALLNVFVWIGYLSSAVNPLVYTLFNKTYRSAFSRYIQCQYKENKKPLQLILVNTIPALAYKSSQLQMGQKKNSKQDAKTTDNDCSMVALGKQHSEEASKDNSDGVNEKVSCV
T3 sequence (P41595 whole entry): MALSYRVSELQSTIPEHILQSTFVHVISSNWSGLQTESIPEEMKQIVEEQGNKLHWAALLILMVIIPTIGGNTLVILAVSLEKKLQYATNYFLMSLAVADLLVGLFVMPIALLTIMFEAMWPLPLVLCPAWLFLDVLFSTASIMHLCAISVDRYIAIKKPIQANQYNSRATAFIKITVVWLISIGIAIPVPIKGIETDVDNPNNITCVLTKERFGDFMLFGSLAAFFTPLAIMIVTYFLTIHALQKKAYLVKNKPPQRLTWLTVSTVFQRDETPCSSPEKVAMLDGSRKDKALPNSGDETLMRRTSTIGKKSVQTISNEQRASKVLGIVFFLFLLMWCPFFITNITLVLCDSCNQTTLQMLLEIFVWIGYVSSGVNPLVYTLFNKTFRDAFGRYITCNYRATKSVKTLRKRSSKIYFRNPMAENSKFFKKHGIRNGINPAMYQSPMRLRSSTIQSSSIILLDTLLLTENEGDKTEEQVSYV

Row | Compound | Emax [1] | EC50 [2] | EC50 ([3]; read-out: EC50) | Emax [4] | EC50 [5] | Emax ([6]; filed as agonist) | Emax ([1]; filed as agonist) | Emax ([4]; filed as agonist) | Emax [6] | EC50 ([3]; read-out: pEC50 (converted))
1 | COc1ccc(OC)c(C2NCCc3c2[nH]c2ccc(Cl)cc32)c1 (stereo not given) | 14.4% | 1820 nM | 2690 nM | 32% | 416 nM | 42.4% | – | – | – | –
2 | Oc1cc(Cl)ccc1C1NCCc2c1[nH]c1ccc(F)cc21 (stereo not given) | – | 229 nM | 209 nM | – | 128 nM | 107% | 73.2% | 105% | – | –
3 | Oc1ccc(Br)cc1C1NCCc2c1[nH]c1ccc(Cl)cc21 (stereo not given) | – | 812 nM | 1320 nM | – | 457 nM | 95.2% | 79.7% | 111% | – | –
4 | COc1ccc(OC)c(C2NCCc3c2[nH]c2ccc(F)cc32)c1 (stereo not given) | – | > 10000 nM | 1600 nM | – | 588 nM | 55.3% | – | 52.1% | – | –
5 | Cc1ccc(O)c(C2NCCc3c2[nH]c2ccc(Cl)cc32)c1 (stereo not given) | – | – | – | – | 4270 nM | – | – | 106% | – | –
6 | Oc1cc(Br)ccc1C1NCCc2c1[nH]c1ccc(F)cc21 (stereo not given) | – | 147 nM | 95 nM | – | 59 nM | 111% | 98% | 112% | – | –
7 | Clc1ccc2[nH]c3c(c2c1)CCNC3c1ccccc1Br (stereo not given) | – | 403 nM | 95.2 nM | – | – | 98.4% | 91.4% | – | – | –
8 | Fc1ccc2[nH]c3c(c2c1)CCNC3c1ccccc1Cl (stereo not given) | 28.1% | 278 nM | 872 nM | – | – | 88.1% | – | – | – | –
9 | Clc1ccc2[nH]c3c(c2c1)CCNC3c1ccc2ccccc2c1 (stereo not given) | – | 15.1 nM | 24.5 nM | – | – | 102% | 96.5% | – | – | –
10 | Oc1c(Br)cccc1C1NCCc2c1[nH]c1ccc(Cl)cc21 (stereo not given) | – | 74.5 nM | 68.6 nM | – | – | 107% | 97.9% | – | – | –
11 | Cn1ccnc1C1NCCc2c1[nH]c1ccc(O)cc21 (stereo not given) | – | 79 nM | 97 nM | – | – | 87.1% | 100% | – | – | –
12 | Oc1ccc2[nH]c3c(c2c1)CCNC3C1CCCCC1 (stereo not given) | – | 281 nM | 959 nM | – | – | – | 74.1% | – | 28.4% | –
13 | COc1cc(OC)c(C2NCCc3c2[nH]c2ccc(O)cc32)cc1OC (stereo not given) | – | 3.8 nM | 7.6 nM | – | – | 109% | 102% | – | – | –
14 | Oc1cccc(C2NCCc3c2[nH]c2ccc(F)cc32)c1 (stereo not given) | – | 208 nM | 130 nM | – | – | 123% | 83.2% | – | – | –
15 | Oc1ccc2[nH]c3c(c2c1)CCNC3Cc1ccccc1 (stereo not given) | – | 288 nM | 481 nM | – | – | 100% | 59.2% | – | – | –
16 | Fc1ccc2[nH]c3c(c2c1)CCNC3C1CCCCC1 (stereo not given) | – | 91.2 nM | 20.4 nM | – | – | 103% | 87.3% | – | – | –
17 | Oc1ccc2[nH]c3c(c2c1)CCNC3c1cccs1 (stereo not given) | – | 346 nM | 294 nM | – | – | 97% | 44.7% | – | – | –
18 | Fc1ccc2[nH]c3c(c2c1)CCNC3c1cc2ccccc2s1 (stereo not given) | – | 1550 nM | 912 nM | – | – | 110% | 40% | – | – | –
19 | Clc1ccc2[nH]c3c(c2c1)CCNC3C1CCCCC1 (stereo not given) | – | 295 nM | 95.5 nM | – | – | 98.5% | 59.9% | – | – | –
20 | Cc1cc(C2NCCc3c2[nH]c2ccc(Cl)cc32)sc1Br (stereo not given) | – | 776 nM | 173 nM | – | – | 118% | 97.1% | – | – | –

Row | Compound | Emax [1] | EC50 [2] | EC50 ([3]; read-out: EC50) | Emax [4] | EC50 [5] | Emax ([6]; filed as agonist) | Emax ([1]; filed as agonist) | Emax ([4]; filed as agonist) | Emax [6] | EC50 ([3]; read-out: pEC50 (converted))
21 | Fc1ccc2[nH]c3c(c2c1)CCNC3c1cccnc1F (stereo not given) | – | 390 nM | 4030 nM | – | – | – | 40.9% | – | 30.2% | –
22 | Oc1ccccc1C1NCCc2c1[nH]c1ccc(F)cc21 (stereo not given) | – | 26 nM | 4.3 nM | – | – | 100% | 96.2% | – | – | –
23 | Cc1cccc(C2NCCc3c2[nH]c2ccc(Cl)cc32)c1 (stereo not given) | – | 481 nM | 256 nM | – | – | 89.1% | 63.1% | – | – | –
24 | Clc1ccc2[nH]c3c(c2c1)CCNC3c1ccc(Br)s1 (stereo not given) | – | 912 nM | 447 nM | – | – | 104% | 62.4% | – | – | –
25 | Oc1ccc2[nH]c3c(c2c1)CCNC3c1ccccc1F (stereo not given) | – | 23 nM | 13.2 nM | – | – | 102% | 91.4% | – | – | –
26 | Cc1cccc(C2NCCc3c2[nH]c2ccc(F)cc32)c1 (stereo not given) | 39.9% | 160 nM | 306 nM | – | – | 114% | – | – | – | –
27 | Cc1noc(C)c1C1NCCc2c1[nH]c1ccc(Cl)cc21 (stereo not given) | – | 513 nM | 191 nM | – | – | 104% | 84.5% | – | – | –
28 | COc1ccc2cc(C3NCCc4c3[nH]c3ccc(F)cc43)ccc2c1 (stereo not given) | 30.5% | 2820 nM | 3390 nM | – | – | 76.3% | – | – | – | –
29 | Cc1noc(C)c1C1NCCc2c1[nH]c1ccc(F)cc21 (stereo not given) | – | 239 nM | 50.1 nM | – | – | 111% | 90.7% | – | – | –
30 | COc1ccc2cc(C3NCCc4c3[nH]c3ccc(Cl)cc43)ccc2c1 (stereo not given) | – | 1320 nM | 1060 nM | – | – | 93.7% | 66.8% | – | – | –
31 | COc1ccc(C2NCCc3c2[nH]c2ccc(O)cc32)c(O)c1 (stereo not given) | – | 0.5 nM | 0.8 nM | – | – | 114% | 103% | – | – | –
32 | Clc1ccc2[nH]c3c(c2c1)CCNC3c1cncnc1 (stereo not given) | 32.1% | 898 nM | 420 nM | – | – | – | – | – | 38.7% | –
33 | Oc1c(Br)cccc1C1NCCc2c1[nH]c1ccc(F)cc21 (stereo not given) | – | 116 nM | 66.5 nM | – | – | 109% | 93.1% | – | – | –
34 | Oc1ccc(C2NCCc3c2[nH]c2ccc(Cl)cc32)cc1 (stereo not given) | – | 93.8 nM | 105 nM | – | – | 99.4% | 103% | – | – | –
35 | Oc1ccc2[nH]c3c(c2c1)CCNC3c1ccccc1C(F)(F)F (stereo not given) | – | 120 nM | 76.4 nM | – | – | 100% | 100% | – | – | –
36 | Clc1ccc2[nH]c3c(c2c1)CCNC3c1ccncc1Cl (stereo not given) | – | 849 nM | 2810 nM | – | – | – | 57.1% | – | 27.3% | –
37 | Clc1ccc2[nH]c3c(c2c1)CCNC3c1cc2ccccc2s1 (stereo not given) | – | 151 nM | 39 nM | – | – | 105% | 88% | – | – | –
38 | Oc1ccc(Cl)cc1C1NCCc2c1[nH]c1ccc(Cl)cc21 (stereo not given) | – | > 10000 nM | 3560 nM | – | 2000 nM | 58.9% | – | 111% | – | –
39 | Oc1ccc(C2NCCc3c2[nH]c2ccc(F)cc32)cc1 (stereo not given) | – | 58.2 nM | 29.8 nM | – | – | 104% | 99.9% | – | – | 30.2 nM
